What was measured:
full-length human LSD1 = full-length human LSD1 (Homo sapiens (Human), UniProt O60341); test: In vitro enzyme inhibition assay LSD-1 (TR-FRET); type: biochemical; details: H3K4me1-biotin peptide
Procedure: This assay determines the ability of a test compound to inhibit LSD1 demethylase activity.
The enzymatic assay of LSD1 activity is based on Time Resolved-Fluorescence Resonance Energy Transfer (TR-FRET) detection.
Plates were read by EnVision Multilabel Reader in TR-FRET mode (excitation at 320 nm, emission at 615 nm and 665 nm) after 1 hour incubation at room temperature.
The ability of the compounds disclosed herein to inhibit LSD1 activity was quantified and the respective IC50 value was determined.

[1] = system: CD11b expression in THP-1 (AML) cells; test: LSD1 CD11b cellular assay (flow cytometry); type: cell-based; details: Homo sapiens, 96 h, THP-1 cells, 4 days
Procedure: To analyze LSD1 inhibitor efficacy in cells, a CDL11b flow cytometry assay was performed. LSD1 inhibition induces CD11b expression in THP-1 (AML) cells which can be measured by flow cytometry. […] LSD 1 test compounds were serially diluted in DMSO. The dilutions were added to each well accordingly to a final concentration of 0.2% DMSO. The cells were incubated at 37 degrees Celsius in 5% CO2 for 4 days. 250 μL of each well was transferred to a well in a 96 well round bottom plate. The plate was centrifuged at 1200 rpm at 4 degrees Celsius in a Beckman Coulter Alegra 6KR centrifuge for 5 minutes. The media was removed leaving the cells at the bottom of the wells. The cells were washed in 100 μL cold HBSS (Hank's Balanced Salt Solution) plus 2% BSA (Bovine Serum Albumin) solution and centrifuged at 1200 rpm at 4 degrees Celsius for 5 minutes. The wash was removed. […] The cells were centrifuged and washed two times in 100 μl HBSS plus 2% BSA. After the final spin the cells were resuspended in 100 μL HBSS plus 2% BSA containing 1 ug/mL DAPI (4′,6-diamidino-2-phenylindole). The cells were then analyzed by flow cytometry in a BD FACSAria machine. Cells were analyzed for CD11b expression. The percent of CD11b expressing cells for each inhibitor concentration was used to determine an IC50 curve for each compound analyzed.

| Compound | IC50 (full-length human LSD1) | IC50 [1] |
| --- | --- | --- |
| CN[C@H]1CCN(C(=O)c2nc(-c3ccc(C#N)c(F)c3)n(-c3ccc(OC)cc3)c2F)C1 [Example 73, 2-Fluoro-4-[5-fluoro-1-(4-methoxyphenyl)-4-[(3S)-3-(methylamino)pyrrolidine-1-carbonyl]imidazol-2-yl]benzonitrile] | < 100 nM | < 100 nM |
| CN[C@H]1CCN(C(=O)c2nc(-c3ccc(C#N)c(F)c3)n(-c3ccc4nn(C)c(C)c4c3)c2C)C1 [Example 103, 4-[1-(2,3-Dimethylindazol-5-yl)-5-methyl-4-[(3S)-3-(methylamino)pyrrolidine-1-carbonyl]imidazol-2-yl]-2-fluorobenzonitrile] | < 100 nM | < 100 nM |
| Cc1ccc(-c2c(-c3ccc(C#N)c(F)c3)cc(C(=O)N3CCC[C@@H](N)C3)n2CCO)cc1 [Example 4, 4-[5-(3-(R)-amino-piperidine-1-carbonyl)-1-(2-hydroxy-ethyl)-2-p-tolyl-1H-pyrrol-3-yl]-2-fluoro-benzonitrile] | < 100 nM | < 100 nM |
| CN[C@H]1CCN(C(=O)c2nc(-c3ccc(C#N)c(F)c3)n(-c3cc4c(Cl)n(C)nc4cc3F)c2C)C1 [Example 111, 4-[1-(3-Chloro-6-fluoro-2-methylindazol-5-yl)-5-methyl-4-[(3S)-3-(methylamino)pyrrolidine-1-carbonyl]imidazol-2-yl]-2-fluorobenzonitrile] | < 100 nM | < 100 nM |
| Cn1cc2cc(-c3c(-c4ccc(C#N)c(F)c4)cc(C(=O)N4CCC[C@@H](N)C4)n3C[C@@H](O)CO)ccc2n1 [Example 38, 4-(5-((R)-3-aminopiperidine-1-carbonyl)-1-((R)-2,3-dihydroxypropyl)-2-(2-methyl-2H-indazol-5-yl)-1H-pyrrol-3-yl)-2-fluorobenzonitrile] | < 100 nM | < 100 nM |
| CN[C@@H]1CCCN(C(=O)c2cn(-c3ccc4nn(C)c(Cl)c4c3)c(-c3ccc(C#N)c(F)c3)n2)C1 [Example 115, 4-[1-(3-Chloro-2-methylindazol-5-yl)-4-[(3R)-3-(methylamino)piperidine-1-carbonyl]imidazol-2-yl]-2-fluorobenzonitrile] | < 100 nM | < 100 nM |
| COc1ccc(-n2cc(C(=O)N3CCC[C@@H](N)C3)nc2-c2ccc(C#N)c(F)c2)cc1F [Example 19, 4-[4-[(3R)-3-aminopiperidine-1-carbonyl]-1-(3-fluoro-4-methoxyphenyl)imidazol-2-yl]-2-fluorobenzonitrile] | < 100 nM | < 100 nM |
| Cn1cc2cc(-c3c(-c4ccc(C#N)c(F)c4)cc(C(=O)N4CCC[C@@H](N)C4)n3CCCO)ccc2n1 [Example 34, (R)-4-(5-(3-aminopiperidine-1-carbonyl)-1-(3-hydroxypropyl)-2-(2-methyl-2H-indazol-5-yl)-1H-pyrrol-3-yl)-2-fluorobenzonitrile] | < 100 nM | < 100 nM |
| Cc1c(C(=O)N2CCC(N)CC2)nc(-c2ccc(C#N)c(F)c2)n1-c1ccc2nn(C)cc2c1 [Example 43, 4-[4-(4-Aminopiperidine-1-carbonyl)-5-methyl-1-(2-methylindazol-5-yl)imidazol-2-yl]-2-fluorobenzonitrile] | < 100 nM | 100 to 1000 nM |
| N#Cc1ccc(-c2nc(C(=O)N3CCC[C@@H](N)C3)c(Cl)n2-c2ccc(C3CC3)nc2)cc1F [Example 80, 4-[4-[(3R)-3-Aminopiperidine-1-carbonyl]-5-chloro-1-(6-cyclopropylpyridin-3-yl)imidazol-2-yl]-2-fluorobenzonitrile] | < 100 nM | 100 to 1000 nM |
| Cn1cc2cc(-n3c(-c4ccc(C#N)c(F)c4)nc(C(=O)N4CCC[C@@H](N)C4)c3Cl)ccc2n1 [Example 75, 4-[4-[(3R)-3-Aminopiperidine-1-carbonyl]-5-chloro-1-(2-methylindazol-5-yl)imidazol-2-yl]-2-fluorobenzonitrile] | < 100 nM | < 100 nM |
| COc1ccc(-n2c(-c3ccc(C#N)c(F)c3)nc(C(=O)N[C@H]3CCCNC3)c2Cl)cc1F [Example 85, 5-Chloro-2-(4-cyano-3-fluorophenyl)-1-(3-fluoro-4-methoxyphenyl)-N-[(3S)-piperidin-3-yl]imidazole-4-carboxamide] | < 100 nM | 100 to 1000 nM |
| COc1ccc(-c2c(-c3ccc(C#N)c(F)c3)cc(C(=O)N3CCC[C@@H](N)C3)n2CCCC(N)=O)cc1 [Example 42, 4-{5-[((3R)-3-aminopiperidyl)carbonyl]-3-(4-cyano-3-fluorophenyl)-2-(4-methoxyphenyl)pyrrolyl} butanamide] | < 100 nM | < 100 nM |
| COc1ccc(-n2cc(C(=O)N3CC[C@H](N)C3)nc2-c2ccc(C#N)c(F)c2)cc1F [Example 20, 4-[4-[(3S)-3-aminopyrrolidine-1-carbonyl]-1-(3-fluoro-4-methoxyphenyl)imidazol-2-yl]-2-fluorobenzonitrile] | < 100 nM | < 100 nM |
| Cc1c(C(=O)N[C@@H]2CCCN(C)C2)nc(-c2ccc(C#N)c(F)c2)n1-c1ccc2nn(C)cc2c1 [Example 60, 2-(4-Cyano-3-fluorophenyl)-5-methyl-1-(2-methylindazol-5-yl)-N-[(3R)-1-methylpiperidin-3-yl]imidazole-4-carboxamide] | < 100 nM | < 100 nM |
| CN(C)[C@H]1CCN(C(=O)c2cn(-c3ccc4nn(C)cc4c3)c(-c3ccc(C#N)c(F)c3)n2)C1 [Example 99, 4-[4-[(3S)-3-(Dimethylamino)pyrrolidine-1-carbonyl]-1-(2-methylindazol-5-yl)imidazol-2-yl]-2-fluorobenzonitrile] | < 100 nM | 100 to 1000 nM |
| Cc1c2cc(-n3c(-c4ccc(C#N)c(F)c4)nc(C(=O)N4CC[C@H](N(C)C)C4)c3C)ccc2nn1C [Example 102, 4-[4-[(3S)-3-(Dimethylamino)pyrrolidine-1-carbonyl]-1-(2,3-dimethylindazol-5-yl)-5-methylimidazol-2-yl]-2-fluorobenzonitrile] | < 100 nM | < 100 nM |
| COCCn1c(C(=O)N2CCC[C@@H](N)C2)cc(-c2ccc(C#N)c(F)c2)c1-c1ccc2nn(C)cc2c1 [Example 36, (R)-4-(5-(3-aminopiperidine-1-carbonyl)-1-(2-methoxyethyl)-2-(2-methyl-2H-indazol-5-yl)-1H-pyrrol-3-yl)-2-fluorobenzonitrile] | < 100 nM | < 100 nM |
| CN[C@H]1CCN(C(=O)c2nc(-c3ccc(C#N)c(F)c3)n(-c3ccc(OC)cc3)c2C)C1 [Example 69, 2-Fluoro-4-[1-(4-methoxyphenyl)-5-methyl-4-[(3S)-3-(methylamino)pyrrolidine-1-carbonyl]imidazol-2-yl]benzonitrile] | < 100 nM | < 100 nM |
| CNCCNC(=O)c1cc(-c2ccc(C#N)c(F)c2)c(-c2ccc3nn(C)cc3c2)n1C [Example 32, [4-(4-cyano-3-fluorophenyl)-1-methyl-5-(2-methyl(2H-indazol-5-yl))pyrrol-2-yl]-N-[2-(methylamino)ethyl]carboxamide] | < 100 nM | < 100 nM |
| Cc1ccc(-c2c(-c3ccc(C#N)cc3)cc(C(=O)N3CCC[C@@H](N)C3)n2C)cn1 [Example 5, 4-[5-(3-(R)-amino-piperidine-1-carbonyl)-1-methyl-2-(6-methyl-pyridin-3-yl)-1H-pyrrol-3-yl]-benzonitrile] | < 100 nM | < 100 nM |
| Cc1c(C(=O)NC2CCCNC2)nc(-c2ccc(C#N)c(F)c2)n1-c1ccc2nn(C)cc2c1 (stereo not shown) [Example 45, 2-(4-Cyano-3-fluorophenyl)-5-methyl-1-(2-methylindazol-5-yl)-N-piperidin-3-ylimidazole-4-carboxamide] | < 100 nM | < 100 nM |
| CN(CCN)C(=O)c1cc(-c2ccc(C#N)c(F)c2)c(-c2ccc3nn(C)cc3c2)n1C [Example 31, N-(2-aminoethyl)[4-(4-cyano-3-fluorophenyl)-1-methyl-5-(2-methyl(2H-indazol-5-yl))pyrrol-2-yl]-N-methylcarboxamide] | < 100 nM | < 100 nM |
| COc1ccc(-n2c(-c3ccc(C#N)c(F)c3)nc(C(=O)N[C@@H]3CCCNC3)c2Cl)cc1F [Example 84, 5-Chloro-2-(4-cyano-3-fluorophenyl)-1-(3-fluoro-4-methoxyphenyl)-N-[(3R)-piperidin-3-yl]imidazole-4-carboxamide] | < 100 nM | < 100 nM |
| COc1ccc(-c2c(-c3ccc(C#N)c(F)c3)cc(C(=O)N3CCC[C@@H](N)C3)n2C)cc1 [Example 2, 4-[5-(3-(R)-amino-piperidine-1-carbonyl)-2-(4-methoxy-phenyl)-1-methyl-1H-pyrrol-3-yl]-2-fluoro-benzonitrile] | < 100 nM | < 100 nM |
| Cc1c(C(=O)N2CCC3(CNC3)C2)nc(-c2ccc(C#N)c(F)c2)n1-c1ccc2nn(C)cc2c1 [Example 91, 4-[4-(2,6-Diazaspiro[3.4]octane-6-carbonyl)-5-methyl-1-(2-methylindazol-5-yl)imidazol-2-yl]-2-fluorobenzonitrile] | < 100 nM | < 100 nM |
